Values quoted from earlier work as cited in PMC7401249 (Marine Drugs, 2020).
“Also recorded” adds a separate entry of the source.

Key:
[1] = system: CaV3.1
[2] = system: NaV1.7
[3] = system: hCaV3.2

Substance: ProTx-I
- inhibition of CaV3.1 current over CaV3.2 [1]: selective inhibition

Substance: ProTx-II
- NaV1.7 block [2]: NaV1.7 selective blocker; also recorded: inhibits NaV1.7
- hCaV3.2 current block among three CaV3.x subtypes [3]: selectively block the hCaV3.2 current
